{
  "source": "patent US8772344B2",
  "about": "“Pharmaceutical composition for inhibiting osteoclast growth” (National Defense Medical Center, priority 2011, dated 2014)",
  "data": [
    {"test_system": "osteoclasts from bone marrow-derived macrophages", "test": "Osteoclast formation from bone marrow-derived macrophages (M-CSF and RANKL), TRAP staining and count of multinucleated cells", "format": "cell-based, DBA/1J mice", "conditions": "bone marrow-derived macrophages; 10 nM, 15 nM and 20 nM; effect positive proportional to the concentration", "method": "(§1) Bone marrow cells (BMCs) from DBA/1J mice were obtained for osteoclast progenitor cell preparation. The BMCs were isolated from the tibias and femurs of 8-wk-old male mice by flushing the bone marrow cavity with PBS. The cells were then centrifuged at 1000 g for 10 min and exposed to 5 ml of hypotonic ACK buffer ([…], and 0.1 mM EDTA, (pH 7.4)) at room temperature for […] to remove the red blood cells. They were incubated with α-MEM (Gibco BRL) containing penicillin (100 U/ml), streptomycin (100 μg/ml) and 10% heat-inactivated FBS for 12 hr to separate the floating and adherent cells. The floating cells were collected, suspended in α-MEM, counted, seeded onto a 96-well plate at 4×10^4 cells/well, and cultured in α-MEM in the presence of 30 ng/ml M-CSF for 3 days to form macrophage-like osteoclast precursor cells. […] On day 3, the medium was replaced with fresh medium containing M-CSF, RANKL and P. amboinicus.\n(§2) TRAP staining was performed as described Han et al. 2007. Briefly, cells were washed with PBS and fixed with 3.7% formaldehyde for 30 min. After washing with PBS, cells were incubated at 37 in a humid and light-protected incubator for 1 hr in the reaction mixture of the Leukocyte Acid Phosphatase Assay kit (Cat. 387, Sigma), as directed by the manufacturer. Cells were washed three times with distilled water and TRAP-positive multinucleated cells containing five or more nuclei were counted under a light microscope. To measure TRAP activity, cells were lysed in 150λ of 0.2% Triton X-100 in PBS, RT for 15 min and then incubated with 100λ of phosphatase substrate solution kit (Cat. CS0740, Sigma) at 37 for 30 min. After incubation, the enzyme reaction mixture was transferred to another plate and the reaction was stopped with 100λ of 0.5N NaOH. Absorbance was measured at 405 nm in a ELISA plate reader, and activity calculated from standard curve generated using p-nitrophenol standards. TRAP activity was normalized to total protein (determined by the BCA assay (Cat. 23225, PIERCE)) as well as to total number of nuclei counted after TRAP and hematoxylin staining of a second, identical 96-well plate run in conjunction with that used for the TRAP assay.\n(§3) Please refer to FIG. 1A and FIG. 1B, bone marrow-derived macrophages were plated in a plate A with M-CSF (FIG. 1A) and a plate B with M-CSF and RANKL (FIG. 1B) and murine RAW264.7 were plated in a plate C (FIG. 1C) and a plate D with RANKL (FIG. 1D) separately. After a period, the growth of the osteoclast in the plate A (plate C) is different from that in the plate B (plate D). According to the abovementioned, M-CSF and RANKL secreted by the osteoblasts will promote the growth of the osteoclast. Therefore, the growth of the osteoclast cannot be seen in the plate A. In the contrast, there are a lot of osteoclasts grown in the plate B.", "values": [
      {"smiles": "C#Cc1cccc(NC(=O)c2ccccc2O)c1", "note": "[Compound 3, N-(3-ethynylphenyl)-2-hydroxybenzamide]", "inhibiting osteoclasts grown (observation of plates, FIG. 2A)": "have the effect for inhibiting osteoclasts grown"},
      {"smiles": "O=C(Nc1ccc(F)c(F)c1)c1ccccc1O", "note": "[Compound 5, N-(3,4-difluorophenyl)-2-hydroxybenzamide]", "inhibiting osteoclasts grown (observation of plates, FIG. 2A)": "have the effect for inhibiting osteoclasts grown"},
      {"smiles": "O=C(Nc1ccc(Cl)cc1F)c1ccccc1O", "note": "[Compound 6, N-(4-chloro-2-fluorophenyl)-2-hydroxybenzamide]", "inhibiting osteoclasts grown (observation of plates, FIG. 2A)": "have the effect for inhibiting osteoclasts grown"}
    ]},
    {"test_system": "osteoclasts from bone marrow-derived macrophages", "test": "Osteoclast formation from bone marrow-derived macrophages (M-CSF and RANKL), TRAP staining and count of multinucleated cells", "format": "cell-based, DBA/1J mice", "conditions": "bone marrow-derived macrophages; compared to the contrast containing M-CSF and RANKL only", "method": "as §1, §2, §3", "values": [
      {"smiles": "C#Cc1cccc(NC(=O)c2ccccc2O)c1", "note": "[Compound 3, N-(3-ethynylphenyl)-2-hydroxybenzamide]", "numbers of osteoclasts as a function of concentration (FIG. 3)": "can inhibit osteoclasts grown"},
      {"smiles": "O=C(Nc1ccc(F)c(F)c1)c1ccccc1O", "note": "[Compound 5, N-(3,4-difluorophenyl)-2-hydroxybenzamide]", "numbers of osteoclasts as a function of concentration (FIG. 3)": "can inhibit osteoclasts grown"},
      {"smiles": "O=C(Nc1ccc(Cl)cc1F)c1ccccc1O", "note": "[Compound 6, N-(4-chloro-2-fluorophenyl)-2-hydroxybenzamide]", "numbers of osteoclasts as a function of concentration (FIG. 3)": "can inhibit osteoclasts grown"}
    ]},
    {"test_system": "osteoclasts from bone marrow-derived macrophages", "test": "Osteoclast formation from bone marrow-derived macrophages (M-CSF and RANKL), TRAP staining and count of multinucleated cells", "format": "cell-based, DBA/1J mice", "conditions": "comparison among the nine compounds of table 1; cell system not stated", "method": "as §1, §2, §3", "values": [
      {"smiles": "O=C(Nc1cccc(C(F)(F)F)c1)c1ccccc1O", "note": "[Compound 1, 2-hydroxy-N-[3-(trifluoromethyl)phenyl]benzamide]", "effect for inhibiting osteoclast growth": "most significant effect for inhibiting osteoclast growth"},
      {"smiles": "C#Cc1cccc(NC(=O)c2ccccc2O)c1", "note": "[Compound 3, N-(3-ethynylphenyl)-2-hydroxybenzamide]", "effect for inhibiting osteoclast growth": "most significant effect for inhibiting osteoclast growth"},
      {"smiles": "O=C(Nc1ccc(F)c(F)c1)c1ccccc1O", "note": "[Compound 5, N-(3,4-difluorophenyl)-2-hydroxybenzamide]", "effect for inhibiting osteoclast growth": "most significant effect for inhibiting osteoclast growth"},
      {"smiles": "O=C(Nc1ccc(Cl)cc1F)c1ccccc1O", "note": "[Compound 6, N-(4-chloro-2-fluorophenyl)-2-hydroxybenzamide]", "effect for inhibiting osteoclast growth": "most significant effect for inhibiting osteoclast growth"}
    ]},
    {"test_system": "murine RAW264.7", "test": "Osteoclast differentiation of murine RAW264.7 cells (RANKL), TRAP staining and count of multinucleated cells", "format": "cell-based", "conditions": "10 nM, 15 nM and 20 nM, effect positive proportional to the concentration", "method": "(§4) Murine RAW264.7 (murine leukemic monocyte/macrophage), a type of osteoclast progenitor cells. The murine monocyte/macrophage cell line RAW264.7 was cultured with DMEM (Gibco BRL) containing 10% heat-inactivated FBS, penicillin (100 U/ml), and streptomycin (100 μg/ml). All cells were grown in a humidified atmosphere containing 5% CO^2 at 37. To induce osteoclast differentiation, RAW264.7 cells were suspended in α-MEM containing 10% FBS, 2 mM […], 100 U/ml penicillin, and 100 μg/ml streptomycin, seeded at 10^4 cells/dish in a 96-well plate and cultured with 100 ng/ml soluble RANKL for 5 days. The medium was changed on day 3.\nas §2, §3", "values": [
      {"smiles": "C#Cc1cccc(NC(=O)c2ccccc2O)c1", "note": "[Compound 3, N-(3-ethynylphenyl)-2-hydroxybenzamide]", "inhibiting osteoclasts grown (observation of plates, FIG. 2B)": "have the effect for inhibiting osteoclasts grown"},
      {"smiles": "O=C(Nc1ccc(F)c(F)c1)c1ccccc1O", "note": "[Compound 5, N-(3,4-difluorophenyl)-2-hydroxybenzamide]", "inhibiting osteoclasts grown (observation of plates, FIG. 2B)": "have the effect for inhibiting osteoclasts grown"},
      {"smiles": "O=C(Nc1ccc(Cl)cc1F)c1ccccc1O", "note": "[Compound 6, N-(4-chloro-2-fluorophenyl)-2-hydroxybenzamide]", "inhibiting osteoclasts grown (observation of plates, FIG. 2B)": "have the effect for inhibiting osteoclasts grown"}
    ]},
    {"test_system": "murine RAW264.7", "test": "Osteoclast differentiation of murine RAW264.7 cells (RANKL), TRAP staining and count of multinucleated cells", "format": "cell-based", "conditions": "compared to the contrast containing RANKL only", "method": "as §4, §2, §3", "values": [
      {"smiles": "C#Cc1cccc(NC(=O)c2ccccc2O)c1", "note": "[Compound 3, N-(3-ethynylphenyl)-2-hydroxybenzamide]", "numbers of osteoclasts as a function of concentration (FIG. 4)": "can inhibit osteoclasts grown"},
      {"smiles": "O=C(Nc1ccc(F)c(F)c1)c1ccccc1O", "note": "[Compound 5, N-(3,4-difluorophenyl)-2-hydroxybenzamide]", "numbers of osteoclasts as a function of concentration (FIG. 4)": "can inhibit osteoclasts grown"},
      {"smiles": "O=C(Nc1ccc(Cl)cc1F)c1ccccc1O", "note": "[Compound 6, N-(4-chloro-2-fluorophenyl)-2-hydroxybenzamide]", "numbers of osteoclasts as a function of concentration (FIG. 4)": "can inhibit osteoclasts grown"}
    ]}
  ]
}
